Results taken from patent US20260308158A1, “TARGETING RNAS ASSOCIATED WITH TAUOPATHIES WITH SMALL MOLECULES” (University of Florida Research Foundation, Incorporated, priority 2023, published 2026).

System: endogenous MAPT pre-mRNA in LAN5 cells
Test: Chem-CLIP / C-Chem-CLIP in LAN5 cells
Assay type: cell-based
Details: pre-incubation
Protocol: Measuring Cellular Occupancy by Chem-CLIP and C-Chem-CLIP. LAN5 cells were grown to ~80% confluency in 100 mm diameter dishes. HeLa cells were transfected as described in the Luciferase Reporter Assay to Study Exon 10 Alternative Splicing except they were re-plated in 100 mm diameter dishes and grown to ~80% confluency (~1 day). The cells were then treated with 1.5 μM of 3 or 4 for 12 h. For C-Chem-CLIP, dilutions of competing compounds 1 or 2 were pre-incubated with cells for 12 h prior to adding 3. After addition of 3, the cells were incubated for an additional 12 h. After the treatment period, whether for Chem-CLIP or C-Chem-CLIP studies, the cells were washed with 10 mL of 1×DPBS. Ice-cold 1×DPBS (10 mL) was then added to the plate followed by irradiation with 365 nm light in a UV Stratalinker 2400 (Stratagene). Cells were scraped with a cell scraper, transferred to a 15 mL conical vial, and collected by centrifugation. Total RNA was extracted using TRIzol LS Reagent (Invitrogen) per the manufacturer's protocol. […]
RT-qPCR was performed on RNA samples before and after pull-down as described in Real-Time Quantitative PCR to enable calculation of fold enrichment in the pulled down samples. Relative fold enrichment of tau pre-mRNA was measured using Equation 3: […]

Structure (SMILES): COc1cc(N)ncc1CCCN(C)CCCn1cnc2c3ccccc3n(C)c2c1=O [Compound 2, 3-(3-((3-(6-amino-4-methoxypyridin-3-yl)propyl)(methyl)amino)propyl)-5-methyl-3,5-dihydro-4H-pyrimido[5,4-b]indol-4-one]
- competition of cross-linking of 3: competed by 1 or 2 in dose dependent fashion
